This is an account of results in publication PMC3179182 (Bioorganic & medicinal chemistry letters, 2010).

SMILES strings stand for the structures.

Assay [1] deals with mGlu5. Put plainly: mGlu5 assays. It is filed as cell-based. Particulars: mode of mGlu5 pharmacology (NAM, PAM, Ago-PAM, Part. Antag., Inactive).
Assay [2] has as its target T1, mGlu5 (Rattus norvegicus, UniProt P31424). The experiment in a line: mGlu5 assays. It is filed as cell-based. To be noted: NAM IC50 relative to 8.
The subject of assay [3] is mGlu5. To be noted: % partial; cited from earlier work.
Assay [4] concerns the target T1, mGlu5. Particulars: phenylethynyl pyrimidine series; cited from earlier work.

T1 sequence (P31424 21-1203): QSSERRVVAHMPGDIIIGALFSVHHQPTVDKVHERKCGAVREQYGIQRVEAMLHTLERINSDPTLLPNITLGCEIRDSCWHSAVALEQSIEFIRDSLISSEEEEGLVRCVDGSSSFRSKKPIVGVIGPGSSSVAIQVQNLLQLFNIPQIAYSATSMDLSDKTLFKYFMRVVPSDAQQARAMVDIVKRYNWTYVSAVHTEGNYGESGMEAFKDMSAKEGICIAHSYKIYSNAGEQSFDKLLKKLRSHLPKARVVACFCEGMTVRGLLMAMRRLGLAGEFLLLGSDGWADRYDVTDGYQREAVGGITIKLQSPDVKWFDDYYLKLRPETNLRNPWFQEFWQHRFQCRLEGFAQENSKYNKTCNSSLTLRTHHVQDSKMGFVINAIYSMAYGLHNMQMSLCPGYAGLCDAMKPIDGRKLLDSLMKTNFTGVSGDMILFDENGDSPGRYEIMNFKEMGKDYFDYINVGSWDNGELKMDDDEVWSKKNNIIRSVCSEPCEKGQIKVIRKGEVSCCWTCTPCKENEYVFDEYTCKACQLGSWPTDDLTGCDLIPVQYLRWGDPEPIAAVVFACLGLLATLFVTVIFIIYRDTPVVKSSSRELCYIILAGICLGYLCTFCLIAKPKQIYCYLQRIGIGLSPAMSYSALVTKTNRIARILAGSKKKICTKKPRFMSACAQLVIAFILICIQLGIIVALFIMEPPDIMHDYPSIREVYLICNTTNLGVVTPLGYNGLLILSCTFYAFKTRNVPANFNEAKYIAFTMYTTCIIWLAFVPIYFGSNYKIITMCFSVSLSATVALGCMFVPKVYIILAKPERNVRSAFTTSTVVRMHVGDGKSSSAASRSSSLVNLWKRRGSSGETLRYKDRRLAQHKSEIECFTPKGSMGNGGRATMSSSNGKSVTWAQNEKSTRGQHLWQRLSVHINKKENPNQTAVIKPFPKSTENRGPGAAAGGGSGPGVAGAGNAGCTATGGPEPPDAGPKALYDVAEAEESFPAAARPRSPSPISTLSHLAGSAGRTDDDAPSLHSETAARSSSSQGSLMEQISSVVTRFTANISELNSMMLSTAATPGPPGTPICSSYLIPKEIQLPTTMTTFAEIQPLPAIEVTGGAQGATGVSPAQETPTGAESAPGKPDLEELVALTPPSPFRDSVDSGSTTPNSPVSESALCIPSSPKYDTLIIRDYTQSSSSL
T1 sequence (P31424 21-1203): as above

Turning to `Cc1cccc(-c2noc([C@H]3CCCCN3C(=O)C3CCCC3)n2)c1` [21c], the Pharmacology entry in assay [1] is “partial antagonists”. Still for that read-out and setting: under `Cc1cccc(-c2noc([C@H]3CCCCN3C(=O)C3CCCCC3)n2)c1` [21d] stands “full non-competitive antagonists (NAMs)”; under `O=C(C1CC1)N1CCCC[C@@H]1c1nc(-c2cccc(F)c2)no1` [22a], “ago-PAMs”. On to `O=C(C1CCC1)N1CCCC[C@@H]1c1nc(-c2cccc(F)c2)no1` [22b/20e], for which, in assay [1] (listed as 22b), the Pharmacology entry is “pure PAM activity”. `O=C(C1CCCC1)N1CCCC[C@@H]1c1nc(-c2cccc(F)c2)no1` [22c]: the Pharmacology result in assay [1] was “ago-PAMs”. Same read-out and setting: in the case of `O=C(C1CCCCC1)N1CCCC[C@@H]1c1nc(-c2cccc(F)c2)no1` [22d] it was “pure PAM activity”; in that of `O=C(C1CCC1)N1CCCC1c1nc(-c2cccc(F)c2)no1` (stereo not shown) [23a], “low micromolar PAMs”.

For the compound `O=C(C1CCC1)N1CCCC1c1nc(-c2ccc(F)cc2)no1` (stereo not shown) [23b], the Pharmacology result in assay [1] is listed as “low micromolar PAMs”. Take `O=C(C1CCC1)N1CCC[C@@H]1c1nc(-c2cccc(F)c2)no1` [(R)-23a]: the Pharmacology result in assay [1] is “potent mGlu5 PAM”. For the compound `O=C(C1CCC1)N1CCC[C@H](c2nc(-c3cccc(Cl)c3)no2)C1` [(S)-15e], the “increase in potency over 8” value in assay [2] is recorded as ~ 41 fold.

Regarding `O=C(C1CCC1)N1CCC[C@H]1c1nc(-c2cccc(F)c2)no1` [(S)-23a], in assay [1], the Pharmacology result was “very weak PAM”. Turning to `C(#Cc1cncnc1)c1ccccc1` [compound 2], the partial antagonism in assay [3] is reported as 71%. With `Cc1cccc(C#Cc2cncnc2)c1` [compound 3], in assay [4], the IC50 was 7.5 nM.

A word on the IC50: it is the concentration needed to halve the response being measured.
